This test deals with cancer stem cell-like cells viability, luminescence. Description: PubChem AID 449748.

Each structure is given as a SMILES string. Records with an inconclusive call do not appear.

On to `O=[N+]([O-])c1ccc(Cl)c([N+](=O)[O-])c1`, for which the concentration at half-maximal activity (AC50) (usually the concentration at which the activity in the assay is half-maximal) is 4.77 µM.
